From PubChem BioAssay AID1919014 (Molecular Pharmacology Branch, DTP, NCI, 2023)

Test system: NCI-H1341 complex spheroids, percent test/control
Experiment: Anticancer human tumor NCI-H1341 cell line growth inhibition [AhR];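 note: spheroids exposed to agents for seven days before readout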
Settings: for IC50: curve of first compound; for viability, T/C: stronger effect = lower value
Text: Multicellular complex tumor spheroid response to aryl hydrocarbon receptor antagonists in combination with a variety of drugs and investigational agents in selected tumor cell lines
The current study was undertaken to assess response to aryl hydrocarbon receptor antagonists in combination with standard-of-care drugs and investigational agents in solid tumor complex spheroid models. Complex spheroids include a stromal component modeled by human endothelial cells (HUVEC) and fibroblasts modeled by human mesenchymal stem cells (MSCs). The concentration ranges selected for each drug and investigational agent were based upon clinically achievable concentrations if the clinical Cmax of the agent was known.
Compounds. The drugs and investigational agents: BAY 2416964 (NSC825713), GNF351 (NSC835774), CH-223191 (NSC835775), CPI-455 (NSC825282), aza-TdCyd (NSC777586), decitabine (NSC127716), belinostat (NSC758774), entinostat (NSC756642), pevonedistat (NSC761192), tazemetostat (NSC777109), talazoparib (NSC765396), olaparib (NSC753686), selinexor (NSC780203), nedisertib (M3814, NSC802822), bortezomib (NSC756655), venetoclax (NSC766270), doxorubicin (NSC123127), elimusertib (BAY189344, NSC800525), ceralasertib (AZD6738, NSC777638), TAK-243 (NSC785004), alisertib (NSC759677), etoposide (NSC141540), topotecan (NSC609699), eribulin (NSC707389), gemcitabine (NSC613327), carboplatin (NSC241240), cisplatin (NSC119875), and SN-38 (NSC673596) were obtained from the National Cancer Institute (NCI) Developmental Therapeutics Program Chemical Repository (32). The FDA-approved anticancer drug set is available from the Developmental Therapeutics Program at https://dtp.cancer.gov/organization/dscb/obtaining/available plates.htm. […] The stock solutions were prepared in dimethyl sulfoxide (DMSO, Sigma-Aldrich, St. Louis, MO, cat. D2650), except for the platinum compounds which were prepared in saline (Quality Biological, Gaithersburg, MD, cat. 114-055-101), at 800-fold the tested concentration and stored at -70 degrees C prior to their use. All drugs and investigational agents were tested over a range starting from a high concentration at or near the clinical Cmax and decreasing in half-log increments. If the clinical Cmax for an agent had not been determined, the highest concentration tested was 10 microM (Table 1).
Cell Culture. All cells were maintained in an incubator at 37 degrees C and 5% CO2 with 95% humidity. The PDC lines were cultured according to standard operating procedures established by the NCI PDMR (https://pdmr.cancer.gov). Briefly, all PDCs were thawed and cultured in Matrigel-coated flasks prepared with a working solution of 1X Ham's F-12 nutrient mix, without supplementation (Invitrogen, Waltham, MA, cat. 11765054), 100 U/mL penicillin-streptomycin (Invitrogen, cat. 15140122), and 2.5% Matrigel (Corning Inc., Corning, NY, cat. 354248) for the first three passages. All PDCs were cultured in complete DMEM/F-12 media containing advanced DMEM/F-12 (Invitrogen, cat. 12634028), 4.9% defined fetal bovine serum, heat inactivated (HyClone Laboratories Inc., Logan, UT, cat. SH30070.03HI), 389 ng/mL hydrocortisone (Sigma-Aldrich, cat. H4001), 9.7 ng/mL human EGF recombinant protein (Invitrogen, cat. PHG0313), 23.4 microg/mL adenine (Sigma-Aldrich, cat. A2786), 97.3 U/mL penicillin-streptomycin (Invitrogen, cat. 15140122), 1.9 mM L-glutamine (Invitrogen, cat. 25030081), and 9.7 microM Y-27632 dihydrochloride (Tocris Bioscience, Bristol, United Kingdom, cat. 1254). The PDCs were cultured in complete DMEM/F12 media without 10 microM Y-27632 dihydrochloride for at least two passages prior to the screen. The established cell lines NCI-H1341 and […] were cultured in DMEM/F-12, HEPES (Invitrogen, cat. 11330032), 5% defined fetal bovine serum (HyClone Laboratories Inc., cat. SH30070.03), ITS premix universal culture supplement [insulin (5 microg/mL), transferrin (5 microg/mL), and selenious acid (5 ng/mL)] […]

Compound: CCc1c2c(nc3ccc(O)cc13)-c1cc3c(c(=O)n1C2)COC(=O)[C@]3(O)CC + CC(CO)NC(=O)c1cc(-c2ccc(Cl)cc2)nn(-c2cnn(C)c2)c1=O
- IC50 (second compound 0.1 µM): 12.3 nM
- IC50 (second compound 0.316 µM): 7.9 nM
- IC50 (second compound 1 µM): 9.6 nM
- IC50 (second compound 3.16 µM): 5.17 nM
- IC50 (second compound 10 µM): 3.47 nM
- viability, T/C (second compound 0.1 µM, first compound 0.000949 µM): 67.7%
- viability, T/C (second compound 0.1 µM, first compound 0.003 µM): 74%
- viability, T/C (second compound 0.1 µM, first compound 0.00949 µM): 46.6%
- viability, T/C (second compound 0.1 µM, first compound 0.03 µM): 38.8%
- viability, T/C (second compound 0.1 µM, first compound 0.0949 µM): 30.7%
- viability, T/C (second compound 0.1 µM, first compound 0.3 µM): 16.9%
- viability, T/C (second compound 0.316 µM, first compound 0.000949 µM): 71.8%
- viability, T/C (second compound 0.316 µM, first compound 0.003 µM): 61.8%
- viability, T/C (second compound 0.316 µM, first compound 0.00949 µM): 48.1%
- viability, T/C (second compound 0.316 µM, first compound 0.03 µM): 33.4%
- viability, T/C (second compound 0.316 µM, first compound 0.0949 µM): 26.5%
- viability, T/C (second compound 0.316 µM, first compound 0.3 µM): 16%
- viability, T/C (second compound 1 µM, first compound 0.000949 µM): 62.8%
- viability, T/C (second compound 1 µM, first compound 0.003 µM): 67.6%
- viability, T/C (second compound 1 µM, first compound 0.00949 µM): 48.2%
- viability, T/C (second compound 1 µM, first compound 0.03 µM): 31.4%
- viability, T/C (second compound 1 µM, first compound 0.0949 µM): 29.5%
- viability, T/C (second compound 1 µM, first compound 0.3 µM): 17.4%
- viability, T/C (second compound 3.16 µM, first compound 0.000949 µM): 73%
- viability, T/C (second compound 3.16 µM, first compound 0.003 µM): 53.2%
- viability, T/C (second compound 3.16 µM, first compound 0.00949 µM): 39%
- viability, T/C (second compound 3.16 µM, first compound 0.03 µM): 37.4%
- viability, T/C (second compound 3.16 µM, first compound 0.0949 µM): 26.5%
- viability, T/C (second compound 3.16 µM, first compound 0.3 µM): 14.1%
- viability, T/C (second compound 10 µM, first compound 0.000949 µM): 61%
- viability, T/C (second compound 10 µM, first compound 0.003 µM): 47.9%
- viability, T/C (second compound 10 µM, first compound 0.00949 µM): 43.8%
- viability, T/C (second compound 10 µM, first compound 0.03 µM): 32.4%
- viability, T/C (second compound 10 µM, first compound 0.0949 µM): 23.4%
- viability, T/C (second compound 10 µM, first compound 0.3 µM): 10.8%

Compound: O=C(c1cc(Cc2n[nH]c(=O)c3ccccc23)ccc1F)N1CCN(C(=O)C2CC2)CC1 + CC(CO)NC(=O)c1cc(-c2ccc(Cl)cc2)nn(-c2cnn(C)c2)c1=O
- IC50 (second compound 0.1 µM): > 10000 nM
- IC50 (second compound 0.316 µM): > 10000 nM
- IC50 (second compound 1 µM): > 10000 nM
- IC50 (second compound 3.16 µM): > 10000 nM
- IC50 (second compound 10 µM): > 10000 nM
- viability, T/C (second compound 0.1 µM, first compound 0.0316 µM): 89.5%
- viability, T/C (second compound 0.1 µM, first compound 0.1 µM): 98.4%
- viability, T/C (second compound 0.1 µM, first compound 0.316 µM): 93.7%
- viability, T/C (second compound 0.1 µM, first compound 1 µM): 89.2%
- viability, T/C (second compound 0.1 µM, first compound 3.16 µM): 82.4%
- viability, T/C (second compound 0.1 µM, first compound 10 µM): 70.6%
- viability, T/C (second compound 0.316 µM, first compound 0.0316 µM): 96.1%
- viability, T/C (second compound 0.316 µM, first compound 0.1 µM): 93.6%
- viability, T/C (second compound 0.316 µM, first compound 0.316 µM): 91.6%
- viability, T/C (second compound 0.316 µM, first compound 1 µM): 80.1%
- viability, T/C (second compound 0.316 µM, first compound 3.16 µM): 77.1%
- viability, T/C (second compound 0.316 µM, first compound 10 µM): 72.7%
- viability, T/C (second compound 1 µM, first compound 0.0316 µM): 80.6%
- viability, T/C (second compound 1 µM, first compound 0.1 µM): 105%
- viability, T/C (second compound 1 µM, first compound 0.316 µM): 97.3%
- viability, T/C (second compound 1 µM, first compound 1 µM): 81.5%
- viability, T/C (second compound 1 µM, first compound 3.16 µM): 86.8%
- viability, T/C (second compound 1 µM, first compound 10 µM): 74.6%
- viability, T/C (second compound 3.16 µM, first compound 0.0316 µM): 94.4%
- viability, T/C (second compound 3.16 µM, first compound 0.1 µM): 90.6%
- viability, T/C (second compound 3.16 µM, first compound 0.316 µM): 94.8%
- viability, T/C (second compound 3.16 µM, first compound 1 µM): 75.9%
- viability, T/C (second compound 3.16 µM, first compound 3.16 µM): 84.2%
- viability, T/C (second compound 3.16 µM, first compound 10 µM): 60.7%
- viability, T/C (second compound 10 µM, first compound 0.0316 µM): 70.2%
- viability, T/C (second compound 10 µM, first compound 0.1 µM): 77.5%
- viability, T/C (second compound 10 µM, first compound 0.316 µM): 85%
- viability, T/C (second compound 10 µM, first compound 1 µM): 65.9%
- viability, T/C (second compound 10 µM, first compound 3.16 µM): 71.9%
- viability, T/C (second compound 10 µM, first compound 10 µM): 58.6%
